Reference: patent publication EP1019398B1, “BENZO(5,6)CYCLOHEPTA(1,2-B)PYRIDINE DERIVATIVES USEFUL FOR INHIBITION OF FARNESYL PROTEIN TRANSFERASE” (SCHERING CORPORATION, priority 1997, dated 1998)

Columns and labels:
[1] = test system: COS Cell; assay: COS Cell IC50 (Cell-Based Assay), procedure of WO 95/10516; details: one range stated for the listed examples
Experimental: FPT IC50 (inhibition of farnesyl protein transferase. in vitro enzyme assay) and COS Cell IC50 (Cell-Based Assay) were determined following the assay procedures described in WO 95/10516, published April 20. 1995. GGPT IC50 (inhibition of geranylgeranyl protein transferase, in vitro enzyme assay). Cell Mat Assay, and anti-tumor activity (in vivo anti-tumor studies) could be determined by the assay procedures described in WO 95/10516. The disclosure of WO 95/10516 is incorporated herein by reference thereto.

[2] = test system: Human tumor cells; assay: Soft Agar Assay (anchorage-independent growth, colony count after MTT staining); type: cell-based; details: 0.3% agarose top layer over 0.6% agarose, 10-16 days at 37°C under 5% CO2
Experimental: Anchorage-independent growth is a characteristic of tumorigenic cell lines. Human tumor cells can be suspended in growth medium containing 0.3% agarose and an indicated concentration of a farnesyl transferase inhibitor. The solution can be overlayed onto growth medium solidified with 0.6% agarose containing the same concentration of farnesyl transferase inhibitor as the top layer. After the top layer is solidified, plates can be incubated for 10-16 days at 37°C under 5% CO2 to allow colony outgrowth. After incubation, the colonies can be stained by overlaying the agar with a solution of MTT (3-[4,5-dimethylthiazol-2-yl]-2,5-diphenyltetrazolium bromide, Thiazolyl blue) (1 mg/mL in PBS). Colonies can be counted and the IC50's can be determined.

IC50 [2] [nM]	Compound	IC50 [1] [nM]
	O=C(CN1CC[S+]([O-])CC1)N1CCN(C2c3ccc(Cl)c(Br)c3CCc3cc(Br)cnc32)CC1 (single isomer, unassigned) [Example 39]	1.8 to 143
	O=C(CC1CCOCC1)N1CCC([C@H]2c3ncc(Br)cc3CCc3cc(Cl)cc(Br)c32)CC1 [Example 1]	1.8 to 143
	O=C(C=C1CCOCC1)N1CCC([C@H]2c3ncc(Br)cc3CCc3cc(Cl)cc(Br)c32)CC1 [Example 2]	1.8 to 143
	O=C(CC1CCSCC1)N1CCC([C@H]2c3ncc(Br)cc3CCc3cc(Cl)cc(Br)c32)CC1 [Example 5]	1.8 to 143
	O=C(CC1CCCCO1)N1CCC([C@H]2c3ncc(Br)cc3CCc3cc(Cl)cc(Br)c32)CC1 (some centres unmarked) [Example 8]	1.8 to 143
	O=C(CN1CCSCC1)N1CCC([C@H]2c3ncc(Br)cc3CCc3cc(Cl)cc(Br)c32)CC1 [Example 37]	1.8 to 143
8	O=C(CC1CCOCC1)N1CCC(C2c3c(Br)cc(Cl)cc3CCc3cc(Br)c[n+]([O-])c32)CC1 (centres unmarked) [Example 40]	1.8 to 143
